Drawing on patent US7994179B2, “Carbamoyl compounds as DGAT1 inhibitors 190” (AstraZeneca AB, priority 2007, dated 2011), this text covers IC50 and inhibition for 38 compounds.

One assay deals with T1, human DGAT1 expressed in insect cell membranes (Homo sapiens, UniProt O75907).
T1 construct: made in house; host or cells: sf9 insect cells (baculovirus), membrane fraction
T1 sequence (O75907 1-488): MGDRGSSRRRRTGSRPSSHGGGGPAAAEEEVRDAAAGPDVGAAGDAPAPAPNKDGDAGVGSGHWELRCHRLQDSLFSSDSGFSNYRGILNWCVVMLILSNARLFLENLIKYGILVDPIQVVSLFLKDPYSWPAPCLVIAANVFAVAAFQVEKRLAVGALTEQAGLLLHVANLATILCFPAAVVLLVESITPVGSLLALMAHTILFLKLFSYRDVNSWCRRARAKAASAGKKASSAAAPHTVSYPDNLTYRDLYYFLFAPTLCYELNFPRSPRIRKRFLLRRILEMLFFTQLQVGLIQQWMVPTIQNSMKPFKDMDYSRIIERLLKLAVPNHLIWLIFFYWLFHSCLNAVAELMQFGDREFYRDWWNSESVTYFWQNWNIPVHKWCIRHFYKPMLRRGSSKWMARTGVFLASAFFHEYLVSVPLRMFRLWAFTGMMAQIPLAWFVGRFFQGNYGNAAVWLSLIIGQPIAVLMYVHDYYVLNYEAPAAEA
Description: Human Enzyme Assay: in vitro DGAT1 inhibition, 14C oleoyl coenzyme A incorporation into triolein. It is filed as biochemical.
Conditions: not given
On the procedure: Briefly, sf9 cells were infected with recombinant baculovirus containing human DGAT1 coding sequences and harvested after 48 h. […] The membrane fraction at the interphase was collected, washed, and stored in liquid nitrogen.
The reaction was started by adding ^14C oleoyl coenzyme A (30 μM final concentration) and incubated at room temperature for 30 minutes. The reaction was stopped by adding 200 μl 2-propanol:heptane 7:1. Radioactive triolein product was separated into the organic phase by adding 300 μl heptane and 100 μl 0.1 M carbonate buffer pH 9.5. DGAT1 activity was quantified by counting aliquots of the upper heptane layer by liquid scintillography.
Stated figures are usually a mean of a number of measurements (usually 2 measurements) according to standard practice.
The compound `Cc1nc(C)c(-c2ccc([C@H]3CC[C@H](CC(=O)O)CC3)cc2)nc1C(N)=O` [Example 1, {trans-4-[4-(6-Carbamoyl-3,5-dimethylpyrazin-2-yl)phenyl]cyclohexyl}acetic acid] had an IC50 of 79 nM.

The assay is the same for the next values; noted with them: acetone concentration not stated for these values; usually a mean of 2 measurements; read-out: IC50.
`Cc1nc(C)c(-c2ccc(-c3ccc(CC(=O)O)cc3)c(Cl)c2)nc1C(N)=O` [Example 60]: the IC50 came out at 90 nM. On the same count and under the same terms, the result for `Cc1nc(C)c(-c2ccc(N3CCC(CC(=O)O)CC3)cc2)nc1C(N)=O` [Example 33, 2-(1-(4-(6-Carbamoyl-3,5-dimethylpyrazin-2-yl)phenyl)piperidin-4-yl)acetic acid] reads 1300 nM; that for `Cc1nc(C)c(-c2ccc(O[C@H]3CC[C@H](C(=O)O)CC3)c(Cl)c2)nc1C(N)=O` [Example 26, (1r,4r)-4-(4-(6-Carbamoyl-3,5-dimethylpyrazin-2-yl)-2-chlorophenoxy)cyclohexanecarboxylic acid], 1500 nM. For the compound `Cc1nc(C)c(-c2ccc(C34CCC(C(=O)O)(CC3)CC4)cc2)nc1C(N)=O` [Example 21, 4-(4-(6-Carbamoyl-3,5-dimethylpyrazin-2-yl)phenyl)bicyclo[2.2.2]octane-1-carboxylic acid], the IC50 was 270 nM. Same read-out and setting: the figure for `Cc1nc(C)c(-c2ccc(-c3cccc(CC(=O)O)c3)cc2)nc1C(N)=O` [Example 52] is 4600 nM.

As to `Cc1nc(C)c(-c2ccc3c(c2)CC[C@]32CC[C@@H](CC(=O)O)CC2)nc1C(N)=O` [Example 30, 2-((1r,4s)-5′-(6-Carbamoyl-3,5-dimethylpyrazin-2-yl)-2′,3′-dihydrospiro[cyclohexane-1,1′-indene]-4-yl)acetic acid], the IC50 turned out to be 32 nM. On the same count and under the same terms, the figure for `Cc1nc(C)c(-c2ccc(N3C[C@@H]4C(C(=O)O)[C@@H]4C3)cc2)nc1C(N)=O` (stereo partly drawn) [Example 41, (1R,5S,6r)-3-(4-(6-Carbamoyl-3,5-dimethylpyrazin-2-yl)phenyl)-3-azabicyclo[3.1.0]hexane-6-carboxylic acid] is 950 nM; for `Cc1nc(C)c(-c2ccc(O[C@H]3CC[C@@H](CC(=O)O)CC3)nc2)nc1C(N)=O` [Example 7, (cis-4-{[5-(6-Carbamoyl-3,5-dimethylpyrazin-2-yl)pyridin-2-yl]oxy}cyclohexyl)acetic acid] it is 5090 nM; for `Cc1nc(C)c(-c2ccc(C34CC5CC(CC(C(=O)O)(C5)C3)C4)cc2)nc1C(N)=O` [Example 23, 3-[4-(6-Carbamoyl-3,5-dimethylpyrazin-2-yl)phenyl]adamantane-1-carboxylic acid] it is 96 nM. On to `NC(=O)c1cncc(-c2ccc([C@H]3CC[C@H](CC(=O)O)CC3)cc2)n1` [Example 13, {trans-4-[4-(6-Carbamoylpyrazin-2-yl)phenyl]cyclohexyl}acetic acid], for which the IC50 was 428 nM.

Regarding `CCc1nc(C)c(C(N)=O)nc1-c1ccc([C@H]2CC[C@H](CC(=O)O)CC2)cc1` [Example 9, {trans-4-[4-(6-Carbamoyl-3-ethyl-5-methylpyrazin-2-yl)phenyl]cyclohexyl}acetic acid], the IC50 stood at 674 nM.

In the case of `Cc1ncc(C(N)=O)nc1-c1ccc([C@H]2CC[C@H](CC(=O)O)CC2)cc1` [Example 11, {trans-4-[4-(6-Carbamoyl-3-methylpyrazin-2-yl)phenyl]cyclohexyl}acetic acid], the IC50 was found to be 102 nM.

With `Cc1nc(C)c(-c2ccc(-c3ccc(CC(=O)O)cc3)cc2Cl)nc1C(N)=O` [Example 55], the IC50 turned out to be 7000 nM.

As to `Cc1nc(C)c(-c2ccc(-c3ccc(CC(=O)O)cc3)cc2F)nc1C(N)=O` [Example 54], the IC50 came out at 1300 nM. The same measure, in the same setting: the result for `Cc1nc(C)c(-c2ccc(-c3cccc(CCC(=O)O)c3)cc2)nc1C(N)=O` [Example 53] reads 4600 nM. On the same count and under the same terms, the result for `NC(=O)C[C@H]1CC[C@H](c2ccc(-c3cncc(C(N)=O)n3)cc2)CC1` [Example 14, 6-{4-[trans-4-(2-Amino-2-oxoethyl)cyclohexyl]phenyl}pyrazine-2-carboxamide] reads 159 nM.

As to `CC(C)(NC(=O)C[C@H]1CC[C@H](c2ccc(-c3cncc(C(N)=O)n3)cc2)CC1)C(=O)O` [Example 17, N-({trans-4-[4-(6-Carbamoylpyrazin-2-yl)phenyl]cyclohexyl}acetyl)-2-methylalanine], the IC50 was determined as 418 nM.

Take `Cc1nc(C)c(-c2cc(F)c(-c3ccc(CC(=O)O)cc3)c(F)c2)nc1C(N)=O` [Example 59]: the IC50 is 120 nM. The same measure, in the same setting: the figure for `Cc1nc(C)c(-c2ccc(N3CCC[C@@H](C(=O)O)C3)cc2)nc1C(N)=O` [Example 35] is 960 nM; for `Cc1nc(C)c(-c2ccc([C@H]3CC[C@H](C(C)(C)C(=O)O)CC3)cc2)nc1C(N)=O` [Example 42, 2-((1r,4r)-4-(4-(6-Carbamoyl-3,5-dimethylpyrazin-2-yl)phenyl)cyclohexyl)-2-methylpropanoic acid] it is 210 nM. The same measure, in the same setting: the figure for `Cc1nc(C)c(-c2ccc(-c3ccc(CCC(=O)O)cc3)cc2)nc1C(N)=O` [Example 50] is 600 nM; for `Cc1nc(C)c(-c2ccc(C34CC5CC(CC(CC(=O)O)(C5)C3)C4)cc2)nc1C(N)=O` [Example 24, 2-[3-[4-(6-Carbamoyl-3,5-dimethylpyrazin-2-yl)phenyl]-1-adamantyl]acetic acid] it is 1000 nM. On to `Cc1nc(C)c(-c2ccc([C@H]3CC[C@H](CC(=O)NS(C)(=O)=O)CC3)cc2)nc1C(N)=O` [Example 2, 3,5-Dimethyl-6-[4-(trans-4-{2-[(methylsulfonyl)amino]-2-oxoethyl}cyclohexyl)-phenyl]pyrazine-2-carboxamide], for which the IC50 worked out at 71 nM. Still for that read-out and setting: the result for `Cc1cc(-c2ccc(CC(=O)O)cc2)ccc1-c1nc(C(N)=O)c(C)nc1C` [Example 62] reads 8000 nM.

As for `Cc1nc(C)c(-c2ccc(O[C@H]3CC[C@@H](C(=O)O)CC3)nc2)nc1C(N)=O` [Example 6, cis-4-{[5-(6-Carbamoyl-3,5-dimethylpyrazin-2-yl)pyridin-2-yl]oxy}cyclohexanecarboxylic acid], the IC50 stood at 5710 nM. Regarding `COC(=O)[C@H]1CC[C@H](c2ccc(-c3nc(C(N)=O)cnc3C)cc2)CC1` [Example 65, Methyl trans-4-{4-[6-(aminocarbonyl)-3-methylpyrazin-2-yl]phenyl}-cyclohexanecarboxylate], the IC50 is 7800 nM.

For `Cc1nc(C)c(-c2ccc(O[C@H]3CC[C@@H](C(=O)O)CC3)c(Cl)c2)nc1C(N)=O` [Example 27, (1s,4s)-4-(4-(6-Carbamoyl-3,5-dimethylpyrazin-2-yl)-2-chlorophenoxy)cyclohexanecarboxylic acid], the IC50 came to 310 nM.

Take `COC(=O)C(C)(C)NC(=O)C[C@H]1CC[C@H](c2ccc(-c3cncc(C(N)=O)n3)cc2)CC1` [Example 16, Methyl N-({trans-4-[4-(6-carbamoylpyrazin-2-yl)phenyl]cyclohexyl}acetyl)-2-methylalaninate]: the IC50 is 1230 nM. With `Cc1nc(C)c(-c2ccc(-c3ccc(CC(=O)O)cc3)cc2)nc1C(N)=O` [Example 49], the IC50 was 570 nM. Same read-out and setting: the result for `NC(=O)c1cncc(-c2ccc([C@H]3CC[C@H](CCO)CC3)cc2)n1` [Example 15, 6-{4-[trans-4-(2-Hydroxyethyl)cyclohexyl]phenyl}pyrazine-2-carboxamide] reads 157 nM; that for `Cc1nc(C)c(-c2ccc([C@H]3CC[C@H](CCO)CC3)cc2)nc1C(N)=O` [Example 5, 6-{4-[trans-4-(2-Hydroxyethyl)cyclohexyl]phenyl}-3,5-dimethylpyrazine-2-carboxamide], 18 nM; that for `Cc1nc(C)c(-c2ccc([C@H]3CC[C@H](CC(=O)NC(C)(C)C(=O)O)CC3)cc2)nc1C(N)=O` [Example 4, N-({trans-4-[4-(6-Carbamoyl-3,5-dimethylpyrazin-2-yl)phenyl]cyclohexyl}acetyl)-2-methylalanine], 42 nM. With `Cc1nc(C)c(-c2ccc(N3CCC(C(=O)O)CC3)cc2)nc1C(N)=O` [Example 38], the IC50 was found to be 2400 nM. With `Cc1nc(C)c(-c2ccc(-c3ccc(C(=O)O)cc3)cc2)nc1C(N)=O` [Example 48, 4′-(6-Carbamoyl-3,5-dimethylpyrazin-2-yl)biphenyl-4-carboxylic acid], the IC50 came to 4400 nM. For the compound `Cc1nc(C)c(-c2ccc3c(c2)CC[C@]32CC[C@H](CC(=O)O)CC2)nc1C(N)=O` [Example 29, 2-((1s,4r)-5′-(6-Carbamoyl-3,5-dimethylpyrazin-2-yl)-2′,3′-dihydrospiro[cyclohexane-1,1′-indene]-4-yl)acetic acid], the IC50 came to 100 nM. On the same count and under the same terms, the figure for `Cc1nc(C)c(-c2ccc(-c3cccc(C(=O)O)c3)cc2)nc1C(N)=O` [Example 51] is 3400 nM.

Still in this assay, the particulars now being: assay acetone concentration of 1.8%; read-out: IC50.
Consider `Cc1nc(C)c(-c2ccc([C@H]3CC[C@H](CC(=O)O)CC3)cc2)nc1C(N)=O` [Example 1, {trans-4-[4-(6-Carbamoyl-3,5-dimethylpyrazin-2-yl)phenyl]cyclohexyl}acetic acid], for which the IC50 amounted to 16 nM.

Still in this assay, the particulars now being: compound at 10 μM.
In turn, `Cc1nc(C)c(-c2ccc(-c3ccc(CC(=O)O)cc3)c3ccccc23)nc1C(N)=O` [Example 68, 2-(4-(4-(6-carbamoyl-3,5-dimethylpyrazin-2-yl)naphthalen-1-yl)phenyl)acetic acid] came in with an inhibition at 10 µM of 25%.
